Reference: patent US11465998B2, “Therapeutic compounds and methods of use thereof” (Regents of the University of Minnesota, priority 2019, dated 2022)
pEC50: −log10 of the molar value. Entries after “also recorded” stand apart in the source; their conditions may differ.

Molecular target: T1, human NOD2 (Homo sapiens, UniProt Q9HC29)
T1 construct: host or cells: HEK293
Experiment: human NOD2 specific reporter gene assay (NF-κB induction)
Type: cell-based
Settings: human NOD2 reporter gene assay
Experimental: Example 5: High-throughput screens in porcine blood: Curated compound collections were obtained from the Institute for Therapeutics Discovery & Development at the University of Minnesota. Compound transfers from source (80 nL of 10 mM stocks) to assay plates were performed using an Echo 550 acoustic liquid handler (Labcyte, Sunnyvale, Calif.). For most libraries, a target final concentration of 10 μM of compound (in a final volume of 80 μL for the assay described below) was achieved. Compound plates were hermetically sealed and stored at −80° C. until used. Fresh, heparin-anticoagulated porcine blood from healthy animals were obtained under USDA supervision from Midwest Research Swine, LLC (Glencoe, Minn.). 80 μL of hematocrit-enriched porcine blood (low-speed centrifugation, followed by resuspension in DMEM supplemented with 10% fetal bovine serum) was added to compound plates and incubated for 15 h. The following day, the plates were briefly centrifuged (100 g, 10 min), and supernatants were transferred using an automated ViaFlow 384 transfer device (Integra Biosciences Corp., Hudson, N.H.) to assay plates containing of 10^6 cells/mL of each of the following NF-κB/secreted alkaline phosphatase reporter cells suspended in HEK-Blue Detection Media: human IFN-α/β, human IFN-γ, human TNF-α/IL-1β (InvivoGen, San Diego, Calif.). NF-κB translocation was assayed spectrophotometrically using an alkaline phosphatase-specific chromogen (present in HEK-detection medium as supplied by InvivoGen) at 620 nm using a SpectraMax M4 multimode microplate reader (Molecular Devices, Sunnyvale, Calif.). Z′ factors were computed for each TLR/NOD-specific signals. Hits were defined as signals >4σ (in-plate standard deviations for test compounds above negative control means), were deconvoluted in full dose-response assays in human TLR-2/-3/-4/-5/-7/-8/-9 and NOD-1/NOD-2-specific reporter cells in liquid handler-assisted assay formats as described previously. Example 6: Murine knockout cell-lines: The following reagents were obtained through BEI Resources, NIAID, NIH: the microglial cell line derived from MAL/MyD88 double knockout Mice (NR-9904), and the macrophage cell line derived from TRIF/TRAM knockout mice (NR-9568). Example 7: Human NOD1/2-specific reporter gene assays (NF-κB induction), and TLR-2/-3/-4/-5/-7/-8/-9/STING/ISG counter-screens: The induction of NF-κB was quantified using human TLR-2/-3/-4/-5/-7/-8/-9/NOD-1/NOD-2/STING/ISG-specific, rapid-throughput, liquid handler-assisted reporter gene assays as previously described by us (Wu, W. et al. J. Med. Chem. 2010, 53, 3198-3213; Shukla, N. M. et al. J. Med. Chem. 2010, 53, 4450-4465; Agnihotri, G. et al. J. Med. Chem. 2011, 54, 1490-1510 and Ukani, R. et al. Bioorg. Med. Chem. Lett. 2012, 22, 293-295). HEK293 cells stably co-transfected with the appropriate hTLR and secreted alkaline phosphatase (sAP) were maintained in HEK-Blue™ Selection medium. Stable expression of secreted alkaline phosphatase (sAP) under control of NF-κB/AP-1/IRF promoters is inducible by appropriate innate immune stimuli, and extracellular sAP in the supernatant is proportional to NF-κB/IRF induction. Reporter cells were incubated at a density of ˜10^5 cells/ml in a volume of 80 μl/well, in 384-well, flat-bottomed, cell culture-treated microtiter plates in the presence of graded concentrations of stimuli. sAP was assayed spectrophotometrically using an alkaline phosphatase-specific chromogen (present in HEK-detection medium as supplied by InvivoGen) at 620 nm. Example 8: Multiplexed immunoassays for human cytokines: Fresh human peripheral blood mononuclear cells (hPBMC) were isolated from human blood obtained by venipuncture in Cell Preparation Tubes (CPT, Beckton-Dickinson) with informed consent and as per guidelines approved by the University of Minnesota Human Subjects Experimentation Committee. Aliquots of PBMCs or THP-1 cells (10^5 cells in 100 μL/well) were stimulated for 16 h with graded concentrations of test compounds. […]

T1 sequence (Q9HC29 whole entry): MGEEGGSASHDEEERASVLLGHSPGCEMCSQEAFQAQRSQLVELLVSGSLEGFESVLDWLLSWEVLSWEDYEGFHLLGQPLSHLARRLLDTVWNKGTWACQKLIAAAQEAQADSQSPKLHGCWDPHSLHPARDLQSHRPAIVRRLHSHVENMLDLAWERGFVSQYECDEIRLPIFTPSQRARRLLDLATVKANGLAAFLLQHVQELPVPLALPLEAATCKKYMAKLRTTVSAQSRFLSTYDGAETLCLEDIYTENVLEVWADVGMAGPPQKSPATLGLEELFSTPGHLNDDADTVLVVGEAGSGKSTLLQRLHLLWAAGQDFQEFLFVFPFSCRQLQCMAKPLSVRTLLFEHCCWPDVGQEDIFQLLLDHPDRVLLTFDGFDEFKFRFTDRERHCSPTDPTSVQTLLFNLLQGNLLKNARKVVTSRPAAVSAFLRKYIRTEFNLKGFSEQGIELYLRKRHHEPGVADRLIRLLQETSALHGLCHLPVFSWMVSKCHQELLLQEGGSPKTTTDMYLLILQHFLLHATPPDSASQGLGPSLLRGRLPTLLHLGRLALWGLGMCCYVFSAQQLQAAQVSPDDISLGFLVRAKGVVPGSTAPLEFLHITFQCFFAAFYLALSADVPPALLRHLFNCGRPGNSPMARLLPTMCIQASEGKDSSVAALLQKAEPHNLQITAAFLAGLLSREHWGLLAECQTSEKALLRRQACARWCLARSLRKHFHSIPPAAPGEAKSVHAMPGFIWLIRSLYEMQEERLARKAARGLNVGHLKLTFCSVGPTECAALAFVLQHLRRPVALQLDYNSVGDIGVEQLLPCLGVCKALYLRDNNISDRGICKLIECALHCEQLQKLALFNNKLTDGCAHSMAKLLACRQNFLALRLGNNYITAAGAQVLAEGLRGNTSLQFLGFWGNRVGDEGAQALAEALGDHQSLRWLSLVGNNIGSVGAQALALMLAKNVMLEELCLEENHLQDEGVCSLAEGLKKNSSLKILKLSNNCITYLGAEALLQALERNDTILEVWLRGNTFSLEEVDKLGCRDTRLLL

Row | SMILES | hNOD2-agonistic activity (in words)
1 | NC(=O)c1cc(-n2cnc3ccccc32)cs1 [Compound 2a, 4-(1H-Benzo[d]imidazol-1-yl)thiophene-2-carboxamide] | Weak hNOD2-agonistic activity
2 | NNC(=O)c1cc(-n2cnc3ccccc32)cs1 [Compound 2b, 4-(1H-Benzo[d]imidazol-1-yl)thiophene-2-carbohydrazide] | inactive
3 | O=C(NO)c1cc(-n2cnc3ccccc32)cs1 [Compound 2c, 4-(1H-Benzo[d]imidazol-1-yl)-N-hydroxythiophene-2-carboxamide] | inactive
4 | CNC(=O)c1cc(-n2cnc3ccccc32)cs1 [Compound 2d, 4-(1H-Benzo[d]imidazol-1-yl)-N-methylthiophene-2-carboxamide] | inactive
5 | CCCCNC(=O)c1cc(-n2cnc3ccccc32)cs1 [Compound 2e, 4-(1H-Benzo[d]imidazol-1-yl)-N-butylthiophene-2-carboxamide] | inactive
6 | O=C(Nc1ccccc1)c1cc(-n2cnc3ccccc32)cs1 [Compound 2f, 4-(1H-Benzo[d]imidazol-1-yl)-N-phenylthiophene-2-carboxamide] | inactive
7 | O=C(NCc1ccccc1)c1cc(-n2cnc3ccccc32)cs1 [Compound 2g, 4-(1H-Benzo[d]imidazol-1-yl)-N-benzylthiophene-2-carboxamide] | inactive
8 | O=C(NNc1ccccc1)c1cc(-n2cnc3ccccc32)cs1 [Compound 2h, 4-(1H-Benzo[d]imidazol-1-yl)-N′-phenylthiophene-2-carbohydrazide] | inactive
9 | O=C(Nc1ccncc1)c1cc(-n2cnc3ccccc32)cs1 [Compound 2i, 4-(1H-Benzo[d]imidazol-1-yl)-N-(pyridin-4-yl)thiophene-2-carboxamide] | inactive
10 | NCc1ccc(NC(=O)c2cc(-n3cnc4ccccc43)cs2)cc1 [Compound 2n, N-(4-(Aminomethyl)phenyl)-4-(1H-benzo[d]imidazol-1-yl)thiophene-2-carboxamide] | inactive
11 | NC(=O)c1cscc1-n1cnc2ccccc21 [Compound 3b, 4-(1H-Benzo[d]imidazol-1-yl)thiophene-3-carboxamide] | inactive
12 | NC(=O)c1sccc1-n1cnc2ccccc21 [Compound 3c, 3-(1H-Benzo[d]imidazol-1-yl)thiophene-2-carboxamide] | inactive
13 | NC(=O)c1cc(-n2cnc3ccccc32)c[nH]1 [Compound 3d, 4-(1H-Benzo[d]imidazol-1-yl)-1H-pyrrole-2-carboxamide] | devoid of activity
14 | NC(=O)c1coc(-n2cnc3ccccc32)n1 [Compound 3e, 2-(1H-Benzo[d]imidazol-1-yl)oxazole-4-carboxamide] | devoid of activity
15 | NC(=O)c1nc(-n2cnc3ccccc32)cs1 [Compound 3f, 4-(1H-Benzo[d]imidazol-1-yl)thiazole-2-carboxamide] | inactive; also recorded: devoid of activity
16 | NC(=O)c1csc(-n2cnc3ccccc32)n1 [Compound 3h, 2-(1H-Benzo[d]imidazol-1-yl)thiazole-4-carboxamide] | devoid of activity
17 | NC(=O)c1cnc(-n2cnc3ccccc32)s1 [Compound 3i, 2-(1H-Benzo[d]imidazol-1-yl)thiazole-5-carboxamide] | devoid of activity
18 | NC(=O)c1ccc(-n2cnc3ccccc32)cc1 [Compound 3j, 4-(1H-Benzo[d]imidazol-1-yl)benzamide] | devoid of activity
19 | NC(=O)c1cccc(-n2cnc3ccccc32)c1 [Compound 3k, 3-(1H-Benzo[d]imidazol-1-yl)benzamide] | devoid of activity
20 | NC(=O)c1cncc(-n2cnc3ccccc32)c1 [Compound 3l, 5-(1H-Benzo[d]imidazol-1-yl)nicotinamide] | devoid of activity
21 | N#Cc1cc(-n2cnc3ccccc32)cs1 [Compound 4a, 4-(1H-Benzo[d]imidazol-1-yl)thiophene-2-carbonitrile] | inactive
22 | N=C(NO)c1cc(-n2cnc3ccccc32)cs1 [Compound 4b, 4-(1H-Benzo[d]imidazol-1-yl)-N-hydroxythiophene-2-carboximidamide] | inactive
23 | Cc1nc2ccccc2n1-c1csc(C(N)=O)c1 [Compound 7a, 4-(2-Methyl-1H-benzo[d]imidazol-1-yl)thiophene-2-carboxamide] | lower potency than the hit compound
24 | CCc1nc2ccccc2n1-c1csc(C(N)=O)c1 [Compound 7b, 4-(2-Ethyl-1H-benzo[d]imidazol-1-yl)thiophene-2-carboxamide] | lower potency than the hit compound
25 | CCCc1nc2ccccc2n1-c1csc(C(N)=O)c1 [Compound 7c, 4-(2-Propyl-1H-benzo[d]imidazol-1-yl)thiophene-2-carboxamide] | lower potency than the hit compound
26 | CCCCCCCCCCCCCc1nc2ccccc2n1-c1csc(C(N)=O)c1 [Compound 7j, 4-(2-Tridecyl-1H-benzo[d]imidazol-1-yl)thiophene-2-carboxamide] | inactive
27 | CC(C)CCc1nc2ccccc2n1-c1csc(C(N)=O)c1 [Compound 7m, 4-(2-Isopentyl-1H-benzo[d]imidazol-1-yl)thiophene-2-carboxamide] | potencies very similar to the butyl analogue (7d)
28 | C=C(C)CCc1nc2ccccc2n1-c1csc(C(N)=O)c1 [Compound 7n, 4-(2-(3-Methylbut-3-en-1-yl)-1H-benzo[d]imidazol-1-yl)thiophene-2-carboxamide] | potencies very similar to the butyl analogue (7d)

Same assay, conditions: human NOD2 reporter gene assay; read-out: EC50 values, human NOD2 agonistic potency

Row | SMILES | pEC50
29 | NC(=O)c1cc(-n2cnc3ccccc32)cs1 [Compound 2a, 4-(1H-Benzo[d]imidazol-1-yl)thiophene-2-carboxamide] | 5.14

Same assay, conditions: human NOD2 specific reporter gene assay; arithmetic mean of quadruplicate samples; NA* indicates inactive under the tested conditions; read-out: hNOD2 Agonistic Activity (μM), EC50

Row | SMILES | EC50 [µM]
30 | Cc1nc2ccccc2n1-c1csc(C(N)=O)c1 [Compound 7a, 4-(2-Methyl-1H-benzo[d]imidazol-1-yl)thiophene-2-carboxamide] | 15.7
31 | CCc1nc2ccccc2n1-c1csc(C(N)=O)c1 [Compound 7b, 4-(2-Ethyl-1H-benzo[d]imidazol-1-yl)thiophene-2-carboxamide] | 13.2
32 | CCCc1nc2ccccc2n1-c1csc(C(N)=O)c1 [Compound 7c, 4-(2-Propyl-1H-benzo[d]imidazol-1-yl)thiophene-2-carboxamide] | 8.26
33 | CCCCc1nc2ccccc2n1-c1csc(C(N)=O)c1 [Compound 7d, 4-(2-Butyl-1H-benzo[d]imidazol-1-yl)thiophene-2-carboxamide] | 2.07
34 | CCCCCCCCc1nc2ccccc2n1-c1csc(C(N)=O)c1 [Compound 7g, 4-(2-Octyl-1H-benzo[d]imidazol-1-yl)thiophene-2-carboxamide] | 2.2
35 | CCCCCCCCCc1nc2ccccc2n1-c1csc(C(N)=O)c1 [Compound 7h, 4-(2-Nonyl-1H-benzo[d]imidazol-1-yl)thiophene-2-carboxamide] | 3.06
36 | CCCCCCCCCCCc1nc2ccccc2n1-c1csc(C(N)=O)c1 [Compound 7i, 4-(2-Undecyl-1H-benzo[d]imidazol-1-yl)thiophene-2-carboxamide] | 5.81
37 | CC(C)CCc1nc2ccccc2n1-c1csc(C(N)=O)c1 [Compound 7m, 4-(2-Isopentyl-1H-benzo[d]imidazol-1-yl)thiophene-2-carboxamide] | 2.91
38 | C=C(C)CCc1nc2ccccc2n1-c1csc(C(N)=O)c1 [Compound 7n, 4-(2-(3-Methylbut-3-en-1-yl)-1H-benzo[d]imidazol-1-yl)thiophene-2-carboxamide] | 3.24
